From ChEMBL document CHEMBL1201862, “PubChem BioAssay data set” (2004)
Calls of active or inactive are those of the source.

Experiments:
[1] = target: T1, Replicative DNA helicase DnaB (Mycobacterium tuberculosis, UniProt P9WMR3); test: DnaB intein splicing inhibitors, dose response, biochemical, cell-free fluorescence (AID 449749); type: functional
T1 sequence (P9WMR3 whole entry): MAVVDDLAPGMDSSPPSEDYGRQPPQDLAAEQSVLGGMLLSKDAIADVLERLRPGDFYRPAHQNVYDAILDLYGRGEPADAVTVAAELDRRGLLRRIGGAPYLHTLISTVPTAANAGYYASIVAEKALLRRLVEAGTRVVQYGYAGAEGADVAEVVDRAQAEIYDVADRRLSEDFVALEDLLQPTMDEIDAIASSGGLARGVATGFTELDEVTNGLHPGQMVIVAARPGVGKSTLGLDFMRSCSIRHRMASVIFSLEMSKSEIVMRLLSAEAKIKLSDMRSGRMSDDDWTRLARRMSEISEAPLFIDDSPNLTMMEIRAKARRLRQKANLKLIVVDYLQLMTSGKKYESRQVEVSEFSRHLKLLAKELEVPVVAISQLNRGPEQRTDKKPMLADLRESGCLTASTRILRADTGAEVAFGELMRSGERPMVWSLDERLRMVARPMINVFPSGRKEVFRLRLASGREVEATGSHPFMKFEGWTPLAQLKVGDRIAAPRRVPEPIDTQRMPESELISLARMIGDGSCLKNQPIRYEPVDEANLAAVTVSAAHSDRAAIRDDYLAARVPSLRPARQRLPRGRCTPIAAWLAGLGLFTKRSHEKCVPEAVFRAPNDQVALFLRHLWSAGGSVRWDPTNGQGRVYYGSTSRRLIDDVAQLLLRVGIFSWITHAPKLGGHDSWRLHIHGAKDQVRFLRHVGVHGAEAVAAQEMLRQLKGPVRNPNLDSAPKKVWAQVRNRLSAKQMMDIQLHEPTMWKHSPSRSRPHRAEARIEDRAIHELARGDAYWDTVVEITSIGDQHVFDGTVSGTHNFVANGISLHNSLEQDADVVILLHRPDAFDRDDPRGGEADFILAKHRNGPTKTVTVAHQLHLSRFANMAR

Protein RecA = target: T2, Protein RecA (Mycobacterium tuberculosis, UniProt P9WHJ3); test: Fluorescence Cell-Free Homogeneous Dose Retest to Identify Inhibitors of RecA-Intein Splicing Activity. [Related pubchem assays (depositor defined):AID2097, AID2223, AID489010, AID492950]; type: functional
T2 sequence (P9WHJ3 whole entry): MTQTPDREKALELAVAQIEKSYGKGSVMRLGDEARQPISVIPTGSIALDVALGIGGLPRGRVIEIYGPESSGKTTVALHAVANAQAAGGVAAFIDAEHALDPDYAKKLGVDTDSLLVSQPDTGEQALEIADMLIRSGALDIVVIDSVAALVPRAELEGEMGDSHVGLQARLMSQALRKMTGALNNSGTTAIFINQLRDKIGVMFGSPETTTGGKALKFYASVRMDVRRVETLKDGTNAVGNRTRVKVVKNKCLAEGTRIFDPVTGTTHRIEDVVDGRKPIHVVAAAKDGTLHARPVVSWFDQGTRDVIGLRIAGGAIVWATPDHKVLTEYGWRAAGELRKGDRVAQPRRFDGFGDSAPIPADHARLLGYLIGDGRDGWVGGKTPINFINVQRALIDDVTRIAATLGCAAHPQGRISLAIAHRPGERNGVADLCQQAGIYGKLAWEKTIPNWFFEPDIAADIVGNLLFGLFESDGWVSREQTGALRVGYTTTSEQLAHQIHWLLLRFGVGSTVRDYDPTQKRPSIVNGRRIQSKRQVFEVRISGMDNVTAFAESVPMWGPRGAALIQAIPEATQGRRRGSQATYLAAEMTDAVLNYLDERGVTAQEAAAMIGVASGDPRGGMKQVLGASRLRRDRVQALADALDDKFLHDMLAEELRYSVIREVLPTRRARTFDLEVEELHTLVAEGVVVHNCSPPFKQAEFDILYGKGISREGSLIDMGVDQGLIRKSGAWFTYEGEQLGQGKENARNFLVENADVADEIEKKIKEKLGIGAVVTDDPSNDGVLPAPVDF

Fatty acid synthase [2] = target: T3, Fatty acid synthase (Homo sapiens, UniProt P49327); test: FAS thioesterase domain inhibitors, dose response, biochemical, endpoint fluorescence intensity, uHTS hits (AID 624327); type: functional;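 note: fluorescence from hydrolysis of an O-methyl fluorescein acyl ester substrate by the enzyme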
Fatty acid synthase [3] = target: T3, Fatty acid synthase; test: FAS thioesterase domain inhibitors, dose response, biochemical, kinetic fluorescence intensity (AID 624326); type: functional;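 note: rate of fluorescence rise from hydrolysis of a fluorogenic O-methyl fluorescein ester substrate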
[4] = Luminescence Cell-Based Dose Confirmation HTS to Identify Activators of 5'UTR Stem-Loop Driven Alpha-Synuclein mRNA Translation in H4 Neuroglioblastoma Cells. [Related pubchem assays: 1829 (Project Summary), 1814 (Primary HTS)]; type: functional
[5] = Luminescence Cell-Based Dose Response HTS to Identify Activators of Luciferase Translation or Activity in H4 […] Cells. [Related pubchem assays: 1829 (Project Summary), 1814 (Primary HTS)]; type: functional
H4 = test: Luminescence Cell-Based Dose Response HTS to Identify Activators of 5'UTR Stem-Loop Driven Prion Protein mRNA Translation in H4 Neuroglioblastoma Cells. [Related pubchem assays: 1829 (Project Summary), 1814 (Primary HTS)]; type: functional; settings: Homo sapiens
H9c2 = test: cells; type: functional, cell-based; settings: Rattus norvegicus, H9c2, Myocardium;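 note: confirmatory concentration-response retest of ultra-high-throughput screening hits for modulation of myocardial damage; cell death induced by hydrogen peroxide oxidative stress; compound pretreatment for 60 min then peroxide exposure for 2 h; potency is for protecting the cells against peroxide damage rather than for killing them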
[6] = system: Streptococcus sp. 'group A'; test: growth inhibition of control SK(-) GAS strain, dose response, counter-screen for streptokinase expression inhibitor project, luminescence, kanamycin, BacTiterGlo, confirmation (AID 1900); type: functional, organism-based
Streptokinase A = target: T4, Streptokinase A (Streptococcus pyogenes serotype M1, UniProt P10520); test: S. pyogenes streptokinase expression inhibitors, potency, dose response, plasminogen activation absorbance, OD405 (AID 1914); type: functional, Streptococcus pyogenes M1 GAS;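 note: secreted streptokinase activity via plasminogen activation per viability signal from cell pellet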
T4 sequence (P10520 whole entry): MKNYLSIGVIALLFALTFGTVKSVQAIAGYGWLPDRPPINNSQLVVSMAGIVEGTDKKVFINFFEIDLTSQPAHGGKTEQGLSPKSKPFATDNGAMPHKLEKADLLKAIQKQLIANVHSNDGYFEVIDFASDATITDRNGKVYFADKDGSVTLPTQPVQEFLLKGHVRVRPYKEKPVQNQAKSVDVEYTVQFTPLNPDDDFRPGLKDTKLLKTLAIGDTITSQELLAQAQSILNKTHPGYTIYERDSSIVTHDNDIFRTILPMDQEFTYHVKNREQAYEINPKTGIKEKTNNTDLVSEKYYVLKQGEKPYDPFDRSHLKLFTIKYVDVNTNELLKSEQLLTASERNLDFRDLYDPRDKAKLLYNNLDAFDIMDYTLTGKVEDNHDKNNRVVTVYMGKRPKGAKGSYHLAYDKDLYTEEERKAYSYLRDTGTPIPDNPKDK

Streptococcus = test: Group A Streptococcus viability loss, dose response, counter-screen for streptokinase expression inhibitor project, luminescence, BacTiterGlo (AID 1915); type: functional, organism-based;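 note: potency for reduction of bacterial viability or growth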
[7] = target: T5, Polyadenylate-binding protein 1 (Homo sapiens, UniProt P11940); test: PABP1 MLLE–PAM2 interaction inhibitors, dose response, miRNA deadenylation inhibitor project, biochemical, fluorescence polarization, Cy5-PAM2 peptide, secondary (AID 602260); type: functional; settings: read-out: IC50_Mean
[8] = target: T5, Polyadenylate-binding protein 1; test: PABP1 MLLE–PAM2 binding inhibitor potency, dose response, biochemical, fluorescence polarization, FITC-PAM2 peptide (AID 602259); type: functional; settings: read-out: IC50_Mean
[9] = target: Luciferin 4-monooxygenase (Photinus pyralis, UniProt P08659); test: firefly luciferase enzyme inhibitors, dose response, biochemical, luminescence (AID 1891)
[10] = Luminescence Cell-Based Dose Confirmation HTS to Identify Inhibitors of Platelet Dense Granule Release. [Related pubchem assays: 1663 (Primary HTS), 1678 (Summary of Project)]; type: functional
Protein skinhead-1 = target: T6, Protein skinhead-1 (Caenorhabditis elegans, UniProt P34707); type: functional
T6 sequence (P34707 whole entry): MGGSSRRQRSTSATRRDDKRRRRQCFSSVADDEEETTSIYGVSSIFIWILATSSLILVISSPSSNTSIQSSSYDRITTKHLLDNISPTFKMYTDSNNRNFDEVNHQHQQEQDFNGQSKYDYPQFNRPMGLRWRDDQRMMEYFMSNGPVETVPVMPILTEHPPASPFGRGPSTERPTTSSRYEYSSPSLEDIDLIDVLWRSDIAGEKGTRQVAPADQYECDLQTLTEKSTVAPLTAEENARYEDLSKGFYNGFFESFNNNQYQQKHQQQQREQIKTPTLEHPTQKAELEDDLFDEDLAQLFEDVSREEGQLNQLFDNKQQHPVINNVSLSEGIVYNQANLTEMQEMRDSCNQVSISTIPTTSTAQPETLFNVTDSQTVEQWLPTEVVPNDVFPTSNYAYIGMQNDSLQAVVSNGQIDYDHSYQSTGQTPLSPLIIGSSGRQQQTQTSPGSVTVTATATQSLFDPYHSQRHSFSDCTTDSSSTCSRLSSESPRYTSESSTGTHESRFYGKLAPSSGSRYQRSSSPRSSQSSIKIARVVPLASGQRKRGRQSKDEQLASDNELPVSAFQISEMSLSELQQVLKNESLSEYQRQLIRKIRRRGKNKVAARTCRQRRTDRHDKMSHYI

[11] = inhibitors of HIV Env-driven cell fusion, dose response, cherry-pick (AID 652057); type: functional, cell-based

T5 sequence (P11940 whole entry): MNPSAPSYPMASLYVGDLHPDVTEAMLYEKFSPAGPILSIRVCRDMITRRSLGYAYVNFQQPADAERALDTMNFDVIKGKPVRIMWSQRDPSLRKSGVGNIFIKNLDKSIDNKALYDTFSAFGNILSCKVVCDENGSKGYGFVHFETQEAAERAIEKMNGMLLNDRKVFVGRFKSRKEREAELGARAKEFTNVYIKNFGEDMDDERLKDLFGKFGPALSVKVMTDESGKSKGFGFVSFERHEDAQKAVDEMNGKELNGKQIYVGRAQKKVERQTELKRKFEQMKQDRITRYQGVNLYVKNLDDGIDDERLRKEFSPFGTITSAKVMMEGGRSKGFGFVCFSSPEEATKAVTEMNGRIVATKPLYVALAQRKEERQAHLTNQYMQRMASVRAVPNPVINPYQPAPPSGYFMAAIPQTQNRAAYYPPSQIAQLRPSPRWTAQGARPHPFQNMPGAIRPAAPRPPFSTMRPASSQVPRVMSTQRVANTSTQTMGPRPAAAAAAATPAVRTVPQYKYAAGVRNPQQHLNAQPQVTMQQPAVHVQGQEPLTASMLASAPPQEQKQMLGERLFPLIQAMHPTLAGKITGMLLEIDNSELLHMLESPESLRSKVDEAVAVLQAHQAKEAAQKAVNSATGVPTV
T3 sequence (P49327 whole entry, the tested form may be a part): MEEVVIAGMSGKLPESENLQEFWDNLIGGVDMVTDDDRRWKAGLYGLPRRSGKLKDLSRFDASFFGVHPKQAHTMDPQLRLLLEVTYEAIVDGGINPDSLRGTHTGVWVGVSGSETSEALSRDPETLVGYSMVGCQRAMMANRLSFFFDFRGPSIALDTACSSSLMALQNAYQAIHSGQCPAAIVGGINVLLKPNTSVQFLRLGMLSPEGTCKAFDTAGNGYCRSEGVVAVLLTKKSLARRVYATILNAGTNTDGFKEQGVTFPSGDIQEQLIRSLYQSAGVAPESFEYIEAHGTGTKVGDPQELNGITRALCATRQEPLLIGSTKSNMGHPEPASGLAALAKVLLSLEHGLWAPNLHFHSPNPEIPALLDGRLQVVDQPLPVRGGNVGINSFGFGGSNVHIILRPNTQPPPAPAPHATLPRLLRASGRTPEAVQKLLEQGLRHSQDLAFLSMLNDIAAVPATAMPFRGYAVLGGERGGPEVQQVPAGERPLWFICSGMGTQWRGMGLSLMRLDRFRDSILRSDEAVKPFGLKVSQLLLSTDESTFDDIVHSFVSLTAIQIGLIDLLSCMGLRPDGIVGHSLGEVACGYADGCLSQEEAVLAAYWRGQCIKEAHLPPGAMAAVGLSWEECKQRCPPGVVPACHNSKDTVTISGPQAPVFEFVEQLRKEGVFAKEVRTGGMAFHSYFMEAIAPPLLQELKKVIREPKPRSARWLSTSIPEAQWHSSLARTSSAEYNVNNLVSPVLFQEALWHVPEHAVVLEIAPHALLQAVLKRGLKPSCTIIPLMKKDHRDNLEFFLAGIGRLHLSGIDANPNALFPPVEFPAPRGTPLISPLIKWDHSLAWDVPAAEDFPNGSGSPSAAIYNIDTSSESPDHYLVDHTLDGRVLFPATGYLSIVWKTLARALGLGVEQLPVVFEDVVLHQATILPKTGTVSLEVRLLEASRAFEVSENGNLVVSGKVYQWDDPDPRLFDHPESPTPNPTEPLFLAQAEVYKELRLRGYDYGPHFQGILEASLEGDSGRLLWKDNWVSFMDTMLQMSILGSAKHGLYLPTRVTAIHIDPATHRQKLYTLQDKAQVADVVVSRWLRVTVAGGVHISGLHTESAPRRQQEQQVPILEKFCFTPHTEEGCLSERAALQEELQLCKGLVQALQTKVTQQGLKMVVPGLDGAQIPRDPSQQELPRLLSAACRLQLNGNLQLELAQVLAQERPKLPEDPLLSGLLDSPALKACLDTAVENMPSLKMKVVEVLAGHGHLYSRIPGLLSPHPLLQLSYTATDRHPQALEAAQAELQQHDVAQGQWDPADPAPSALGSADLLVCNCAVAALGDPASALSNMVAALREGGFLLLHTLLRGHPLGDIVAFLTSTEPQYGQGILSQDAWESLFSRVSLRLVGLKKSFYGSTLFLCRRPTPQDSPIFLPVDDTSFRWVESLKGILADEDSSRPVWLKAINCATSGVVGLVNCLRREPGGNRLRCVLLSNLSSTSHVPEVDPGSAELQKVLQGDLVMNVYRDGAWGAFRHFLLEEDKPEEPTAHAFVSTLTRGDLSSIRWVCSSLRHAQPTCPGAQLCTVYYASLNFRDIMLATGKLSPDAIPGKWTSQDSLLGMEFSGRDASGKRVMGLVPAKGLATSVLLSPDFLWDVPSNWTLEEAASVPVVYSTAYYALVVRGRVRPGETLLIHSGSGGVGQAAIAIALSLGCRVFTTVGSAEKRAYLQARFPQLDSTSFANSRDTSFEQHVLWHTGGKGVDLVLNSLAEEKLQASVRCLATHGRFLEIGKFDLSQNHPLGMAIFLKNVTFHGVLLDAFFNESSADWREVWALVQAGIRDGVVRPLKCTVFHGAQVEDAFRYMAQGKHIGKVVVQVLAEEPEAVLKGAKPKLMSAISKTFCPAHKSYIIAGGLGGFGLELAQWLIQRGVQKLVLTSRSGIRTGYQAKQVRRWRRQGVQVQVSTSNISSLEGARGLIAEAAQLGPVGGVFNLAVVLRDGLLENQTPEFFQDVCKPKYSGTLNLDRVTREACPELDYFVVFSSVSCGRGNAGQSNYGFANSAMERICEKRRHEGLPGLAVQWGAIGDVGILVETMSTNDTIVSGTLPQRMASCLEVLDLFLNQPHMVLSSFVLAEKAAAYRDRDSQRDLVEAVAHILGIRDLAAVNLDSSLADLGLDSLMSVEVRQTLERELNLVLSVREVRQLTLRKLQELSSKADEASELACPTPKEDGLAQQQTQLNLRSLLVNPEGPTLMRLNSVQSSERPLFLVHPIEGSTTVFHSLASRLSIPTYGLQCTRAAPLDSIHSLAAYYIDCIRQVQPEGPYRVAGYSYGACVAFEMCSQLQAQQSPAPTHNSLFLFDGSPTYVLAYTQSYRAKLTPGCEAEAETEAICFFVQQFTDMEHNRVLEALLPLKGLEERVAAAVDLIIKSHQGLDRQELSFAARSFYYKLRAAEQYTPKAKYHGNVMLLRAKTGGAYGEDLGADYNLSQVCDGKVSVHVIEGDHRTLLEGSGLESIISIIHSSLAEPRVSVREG
Luciferin 4-monooxygenase, sequence (P08659 whole entry): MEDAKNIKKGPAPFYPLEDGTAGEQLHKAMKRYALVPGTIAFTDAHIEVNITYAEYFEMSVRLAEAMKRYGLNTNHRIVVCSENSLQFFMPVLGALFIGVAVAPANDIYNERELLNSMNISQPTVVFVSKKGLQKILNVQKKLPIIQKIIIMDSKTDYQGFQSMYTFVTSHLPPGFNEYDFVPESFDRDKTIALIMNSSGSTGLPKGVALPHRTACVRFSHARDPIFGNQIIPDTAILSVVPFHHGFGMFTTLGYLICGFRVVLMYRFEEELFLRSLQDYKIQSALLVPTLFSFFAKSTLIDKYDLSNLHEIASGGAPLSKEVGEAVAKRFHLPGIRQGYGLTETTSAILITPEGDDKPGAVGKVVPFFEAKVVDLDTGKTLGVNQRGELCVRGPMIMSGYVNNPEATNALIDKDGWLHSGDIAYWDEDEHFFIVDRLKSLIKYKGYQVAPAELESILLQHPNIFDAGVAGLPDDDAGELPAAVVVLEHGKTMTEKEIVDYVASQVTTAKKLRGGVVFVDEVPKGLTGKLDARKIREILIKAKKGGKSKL

What does the source list for N#Cc1cc(-c2ccccc2)nc(Oc2ccccc2)n1?
AC50 [1]: 6.79 µM (active); EC50 (Protein RecA): 17.7 µM (active); IC50 (Fatty acid synthase [2]): 12.2 µM (active); IC50 (Fatty acid synthase [3]): 12.9 µM (active)

Which results are given for CCC(=O)Oc1cccc(C(=O)Nc2ccc(-c3nnc(-c4ccco4)o3)cc2)c1?
EC50 [4]: 3.89 µM (active); EC50 [5]: > 120 µM (not active); EC50 (H4): 6.33 µM (active); IC50 (H9c2): 22.7 µM (active)

Which results are given for O=[N+]([O-])c1ccc(NCc2ccc(Cl)cc2)c2ccncc12?
EC50 [6]: 32.3 µM (active); EC50 (Streptokinase A): 15.1 µM (active); EC50 (Streptococcus): > 150 µM (not active); IC50 (Fatty acid synthase [2]): 3.17 µM (active); IC50 (Fatty acid synthase [3]): 3.75 µM (active)

Which results are given for COc1cc2ncc(S(=O)(=O)c3ccccc3)c(N3CCC4(CC3)OCCO4)c2cc1OC?
IC50 (Fatty acid synthase [2]): 2.55 µM (active); IC50 (Fatty acid synthase [3]): 1.59 µM (active)

With CC(NC(=O)COC(=O)c1cc([N+](=O)[O-])ccc1N1CCOCC1)c1ccccc1 (stereo not given) as the compound, how does the IC50 (Fatty acid synthase [2]) read?
Its IC50 is 4.64 µM (active).

And the IC50 (Fatty acid synthase [3])?
Its IC50 is 2.93 µM (active).

What does the source list for CN(C)S(=O)(=O)c1cccc(NC(=O)c2cc([N+](=O)[O-])ccc2N2CCCCC2)c1?
IC50 (Fatty acid synthase [2]): 13.1 µM (active); IC50 (Fatty acid synthase [3]): 12.2 µM (active)

Which results are given for COc1ccc(N2C(=O)NC3CC2(C)Oc2ccc(Br)cc23)cc1OC (stereo not given)?
IC50 (Fatty acid synthase [2]): 4.93 µM (active); IC50 (Fatty acid synthase [3]): 5.33 µM (active)

Which IC50 [7] does the source give for O=C(CN1C(=O)S/C(=C/c2ccncc2)C1=O)N1CCOCC1 here?
The IC50 was > 66 µM (inactive).

And the IC50 [8]?
Its IC50 is > 66 µM (inactive).

With O=C(NCCc1cccc(Cl)c1)c1ccc(Cl)c([N+](=O)[O-])c1 as the compound, how does the IC50 (Fatty acid synthase [2]) read?
Its IC50 is 9.28 µM (active).

And the IC50 (Fatty acid synthase [3])?
The IC50 was 9.95 µM (active).

Which IC50 [7] does the source give for O=[N+]([O-])c1ccc(CSc2ccc(S(=O)(=O)N3CCOCC3)cn2)cc1 here?
The IC50 was > 66 µM (inactive).

And the IC50 [8]?
Its IC50 is > 66 µM (inactive).

And the IC50 (Fatty acid synthase [2])?
Its IC50 is 13.4 µM (active).

And the IC50 (Fatty acid synthase [3])?
The IC50 was 4.09 µM (active).

With Cc1onc(-c2c(F)cccc2Cl)c1C(=O)NC(=S)NC1CCS(=O)(=O)C1 (stereo not given) as the compound, how does the IC50 [7] read?
The IC50 was > 66 µM (inactive).

What about the IC50 [8] of the same compound?
Its IC50 is > 66 µM (inactive).

With COc1ccc(C2(CNC(=O)c3cccc([N+](=O)[O-])c3)CCCCC2)cc1OC as the compound, how does the IC50 (Fatty acid synthase [2]) read?
Its IC50 is 14.9 µM (active).

What about the IC50 (Fatty acid synthase [3]) of the same compound?
The IC50 was 10.2 µM (active).

Which EC50 [9] does the source give for COc1ccc(C(=O)NCc2ccc3c(c2)cc(C)n3C)cc1 here?
Its EC50 is > 112 µM (not active).

And the EC50 [10]?
Its EC50 is > 112 µM (not active).

What about the IC50 [7] of the same compound?
Its IC50 is > 66 µM (inactive).

What about the IC50 [8] of the same compound?
The IC50 was > 66 µM (inactive).

And the IC50 (Protein skinhead-1)?
The IC50 was > 100 µM (inactive).

What does the source list for COC(=O)CSc1[nH]c2ccccc2c1[N+](=O)[O-]?
IC50 [7]: > 66 µM (inactive); IC50 [8]: > 66 µM (inactive)

Which IC50 [7] does the source give for COc1nccnc1NS(=O)(=O)c1ccc(NC(=S)NC(=O)/C=C/c2ccccc2)cc1 here?
Its IC50 is > 66 µM (inactive).

And the IC50 [8]?
The IC50 was > 66 µM (inactive).

With c1cc2c3c(cccc3c1)NC1(CCCC1)N2 as the compound, how does the IC50 [7] read?
The IC50 was > 66 µM (inactive).

And the IC50 [8]?
The IC50 was > 66 µM (inactive).

What does the source list for CSc1nsc(NN)n1?
IC50 [7]: > 66 µM (inactive); IC50 [8]: > 66 µM (inactive)

With C[C@H]1CN([C@@H](C)CO)C(=O)c2cccc(NS(=O)(=O)c3ccc(Cl)cc3)c2O[C@@H]1CN(C)Cc1ccc(C(F)(F)F)cc1 as the compound, how does the AC50 [11] read?
Its AC50 is 29 µM (active).

With COc1ccc2c3c(n(C)c2c1)[C@@H](CO)N(C(=O)Nc1ccc(F)cc1)CC31CCN(Cc2cccc(F)c2)CC1 as the compound, how does the AC50 [11] read?
The AC50 was < 0.26 µM (active).

What does the source list for Cc1cc(Cl)ccc1NC(=O)CCC(=O)N/N=C/c1cc([N+](=O)[O-])ccc1O?
IC50 (Fatty acid synthase [2]): 12.8 µM (active); IC50 (Fatty acid synthase [3]): 8.57 µM (active)
